Columns and labels:
Assay in all cases: NCI-60 anticancer screening (SRB)
Assay type in all cases: cell-based
CCRF-CEM = details: Homo sapiens, leukemia, one dose 10 μM, read-out: Growth Inhibition Percentage (GI %)
RPMI-8226 = details: Homo sapiens; RPMI-8226, leukemia; one dose 10 μM; read-out: Growth Inhibition Percentage (GI %)
SR = details: Homo sapiens, leukemia, one dose 10 μM, read-out: Growth Inhibition Percentage (GI %)
A549/ATCC = details: Homo sapiens; A549/ATCC, NSC lung cancer; one dose 10 μM; read-out: Growth Inhibition Percentage (GI %)
EKVX = details: Homo sapiens, NSC lung cancer, one dose 10 μM, read-out: Growth Inhibition Percentage (GI %)
HOP-92 = details: Homo sapiens; HOP-92, NSC lung cancer; one dose 10 μM; read-out: Growth Inhibition Percentage (GI %)
NCI-H226 = details: Homo sapiens; NCI-H226, NSC lung cancer; one dose 10 μM; read-out: Growth Inhibition Percentage (GI %)
NCI-H322M = details: Homo sapiens, NSC lung cancer, one dose 10 μM, read-out: Growth Inhibition Percentage (GI %)
HCC-2998 = details: Homo sapiens; HCC-2998, colon cancer; one dose 10 μM; read-out: Growth Inhibition Percentage (GI %)
KM 12 = details: Homo sapiens, KM12; KM 12, colon cancer; one dose 10 μM; read-out: Growth Inhibition Percentage (GI %)
SW-620 = details: Homo sapiens; SW-620, colon cancer; one dose 10 μM; read-out: Growth Inhibition Percentage (GI %)
SNB-19 = details: Homo sapiens; SNB-19, CNS cancer; one dose 10 μM; read-out: Growth Inhibition Percentage (GI %)
SNB-75 = details: Homo sapiens; SNB-75, CNS cancer; one dose 10 μM; read-out: Growth Inhibition Percentage (GI %)
U251 = details: Homo sapiens, U-251; U251, CNS cancer; one dose 10 μM; read-out: Growth Inhibition Percentage (GI %)
LOX IMVI = details: Homo sapiens, melanoma, one dose 10 μM, read-out: Growth Inhibition Percentage (GI %)
MALME-3M = details: Homo sapiens, melanoma, one dose 10 μM, read-out: Growth Inhibition Percentage (GI %)
SK-MEL-2 = details: Homo sapiens; SK-MEL-2, melanoma; one dose 10 μM; read-out: Growth Inhibition Percentage (GI %)
SK-MEL-28 = details: Homo sapiens; SK-MEL-28, melanoma; one dose 10 μM; read-out: Growth Inhibition Percentage (GI %)
SK-MEL-5 = details: Homo sapiens; SK-MEL-5, melanoma; one dose 10 μM; read-out: Growth Inhibition Percentage (GI %)
OVCAR-3 = details: Homo sapiens; OVCAR-3, ovarian cancer; one dose 10 μM; read-out: Growth Inhibition Percentage (GI %)
OVCAR-4 = details: Homo sapiens; OVCAR-4, ovarian cancer; one dose 10 μM; read-out: Growth Inhibition Percentage (GI %)
OVCAR-5 = details: Homo sapiens; OVCAR-5, ovarian cancer; one dose 10 μM; read-out: Growth Inhibition Percentage (GI %)
SK-OV-3 = details: Homo sapiens; SK-OV-3, ovarian cancer; one dose 10 μM; read-out: Growth Inhibition Percentage (GI %)
786-0 = details: Homo sapiens; 786-0, renal cancer; one dose 10 μM; read-out: Growth Inhibition Percentage (GI %)
A498 = details: Homo sapiens; A498, renal cancer; one dose 10 μM; read-out: Growth Inhibition Percentage (GI %)
ACHN = details: Homo sapiens, renal cancer, one dose 10 μM, read-out: Growth Inhibition Percentage (GI %)
CAKI-1 = details: Homo sapiens; CAKI-1, renal cancer; one dose 10 μM; read-out: Growth Inhibition Percentage (GI %)
SN 12C = details: Homo sapiens, SN12C; SN 12C, renal cancer; one dose 10 μM; read-out: Growth Inhibition Percentage (GI %)
TK-10 = details: Homo sapiens; TK-10, renal cancer; one dose 10 μM; read-out: Growth Inhibition Percentage (GI %)
MDA-MB-231 = details: Homo sapiens; MDA-MB-231, breast cancer; one dose 10 μM; read-out: Growth Inhibition Percentage (GI %)
BT-549 = details: Homo sapiens; BT-549, breast cancer; one dose 10 μM; read-out: Growth Inhibition Percentage (GI %)
T-47D = details: Homo sapiens, T47D, breast cancer, one dose 10 μM, read-out: Growth Inhibition Percentage (GI %)
MDA-MB-468 = details: Homo sapiens; MDA-MB-468, breast cancer; one dose 10 μM; read-out: Growth Inhibition Percentage (GI %)

SMILES | inhibition at 10 µM (CCRF-CEM) [%] | inhibition at 10 µM (RPMI-8226) [%] | inhibition at 10 µM (SR) [%] | inhibition at 10 µM (A549/ATCC) [%] | inhibition at 10 µM (EKVX) [%] | inhibition at 10 µM (HOP-92) [%] | inhibition at 10 µM (NCI-H226) [%] | inhibition at 10 µM (NCI-H322M) [%] | inhibition at 10 µM (HCC-2998) [%] | inhibition at 10 µM (KM 12) [%] | inhibition at 10 µM (SW-620) [%] | inhibition at 10 µM (SNB-19) [%] | inhibition at 10 µM (SNB-75) [%] | inhibition at 10 µM (U251) [%] | inhibition at 10 µM (LOX IMVI) [%] | inhibition at 10 µM (MALME-3M) [%] | inhibition at 10 µM (SK-MEL-2) [%] | inhibition at 10 µM (SK-MEL-28) [%] | inhibition at 10 µM (SK-MEL-5) [%] | inhibition at 10 µM (OVCAR-3) [%] | other results
CCOC(=O)C1=C(N)N(c2ccc(Cl)cc2)C2=C(C(=O)CC(C)(C)C2)C1c1ccc(N2CCOCC2)cc1 (racemic) [8m, (±)-Ethyl 2-amino-1–(4-chlorophenyl)-7,7-dimethyl-4-[4-(morpholin-4-yl)phenyl]-5-oxo-1,4,5,6,7,8-hexahydroquinoline-3-carboxylate] | < 10 | < 10 | < 10 | < 10 | 25 | < 10 | < 10 | < 10 | < 10 | < 10 | < 10 | < 10 | < 10 | 12 | < 10 | < 10 | < 10 | < 10 | 20 | < 10 | inhibition at 10 µM (OVCAR-4): < 10%; inhibition at 10 µM (OVCAR-5): < 10%; inhibition at 10 µM (SK-OV-3): < 10%; inhibition at 10 µM (786-0): 11%; inhibition at 10 µM (A498): < 10%; inhibition at 10 µM (ACHN): < 10%; inhibition at 10 µM (CAKI-1): 13%; inhibition at 10 µM (SN 12C): < 10%; inhibition at 10 µM (TK-10): < 10%; inhibition at 10 µM (MDA-MB-231): 13%; inhibition at 10 µM (BT-549): 76%; inhibition at 10 µM (T-47D): < 10%; inhibition at 10 µM (MDA-MB-468): 16%
CCOC(=O)C1=C(N)N(c2ccccc2)C2=C(C(=O)CC(C)(C)C2)C1c1ccc(F)cc1 (racemic) [8a, (±)-Ethyl 2-amino-4–(4-fluorophenyl)-7,7-dimethyl-5-oxo-1-phenyl-1,4,5,6,7,8-hexahydroquinoline-3-carboxylate] | < 10 | < 10 | < 10 | < 10 | < 10 | < 10 | < 10 | < 10 | < 10 | < 10 | < 10 | < 10 | < 10 | < 10 | < 10 | < 10 | < 10 | < 10 | < 10 | < 10 | inhibition at 10 µM (OVCAR-4): < 10%; inhibition at 10 µM (OVCAR-5): < 10%; inhibition at 10 µM (SK-OV-3): < 10%; inhibition at 10 µM (786-0): < 10%; inhibition at 10 µM (A498): < 10%; inhibition at 10 µM (ACHN): < 10%; inhibition at 10 µM (CAKI-1): < 10%; inhibition at 10 µM (SN 12C): < 10%; inhibition at 10 µM (TK-10): < 10%; inhibition at 10 µM (MDA-MB-231): < 10%; inhibition at 10 µM (BT-549): < 10%; inhibition at 10 µM (T-47D): < 10%; inhibition at 10 µM (MDA-MB-468): < 10%
CCOC(=O)C1=C(N)N(c2ccccc2)C2=C(C(=O)CC(C)(C)C2)C1c1ccccc1Br (racemic) [6d, (±)-Ethyl 2-amino-4–(2-bromophenyl)-7,7-dimethyl-5-oxo-1-phenyl-1,4,5,6,7,8-hexahydroquinoline-3-carboxylate] | 20 | 35 | 14 | 13 | 11 | 27 | 11 | < 10 | < 10 | < 10 | < 10 | < 10 | 33 | < 10 | 12 | < 10 | 23 | < 10 | < 10 | < 10 | inhibition at 10 µM (OVCAR-4): 12%; inhibition at 10 µM (OVCAR-5): < 10%; inhibition at 10 µM (SK-OV-3): < 10%; inhibition at 10 µM (786-0): 13%; inhibition at 10 µM (A498): < 10%; inhibition at 10 µM (ACHN): 11%; inhibition at 10 µM (CAKI-1): 36%; inhibition at 10 µM (SN 12C): < 10%; inhibition at 10 µM (TK-10): < 10%; inhibition at 10 µM (MDA-MB-231): < 10%; inhibition at 10 µM (BT-549): < 10%; inhibition at 10 µM (T-47D): 30%; inhibition at 10 µM (MDA-MB-468): 30%
CCOC(=O)C1=C(N)N(c2ccccc2)C2=C(C(=O)CC(C)(C)C2)C1c1ccc([N+](=O)[O-])cc1 (racemic) [8i, (±)-Ethyl 2-amino-4–(4-nitrophenyl)-7,7-dimethyl-5-oxo-1-phenyl-1,4,5,6,7,8-hexahydroquinoline-3-carboxylate] | 11 | 17 | 34 | < 10 | 14 | < 10 | 12 | < 10 | < 10 | < 10 | < 10 | < 10 | < 10 | < 10 | 11 | < 10 | < 10 | < 10 | < 10 | < 10 | inhibition at 10 µM (OVCAR-4): < 10%; inhibition at 10 µM (OVCAR-5): < 10%; inhibition at 10 µM (786-0): < 10%; inhibition at 10 µM (A498): < 10%; inhibition at 10 µM (ACHN): 12%; inhibition at 10 µM (CAKI-1): 32%; inhibition at 10 µM (SN 12C): < 10%; inhibition at 10 µM (TK-10): < 10%; inhibition at 10 µM (MDA-MB-231): < 10%; inhibition at 10 µM (BT-549): < 10%; inhibition at 10 µM (T-47D): < 10%; inhibition at 10 µM (MDA-MB-468): < 10%
